Reference: BindingDB's records for PubMed 21964340
pIC50, pKd: −log10 of the molar value.

Tests used:
[1] = Inhibition of PSMD11 (unknown origin) incubated for 1 hr by colloidal coomassie staining based LC-MS/MS analysis
[2] = Inhibition of LAS1L (unknown origin) incubated for 1 hr by colloidal coomassie staining based LC-MS/MS analysis
[3] = Inhibition of PIAS4 (unknown origin) incubated for 1 hr by colloidal coomassie staining based LC-MS/MS analysis
[4] = Binding affinity against ELL (unknown origin) assessed as apparent dissociation constant incubated for 1 hr by colloidal coomassie staining based LC-MS/MS analysis
[5] = biological target: Sodium-dependent noradrenaline transporter (Homo sapiens) (UniProt P23975); test: Inhibition of human NET by scintillation proximity assay
Sequence of Sodium-dependent noradrenaline transporter (Homo sapiens) (P23975 whole entry, looked up): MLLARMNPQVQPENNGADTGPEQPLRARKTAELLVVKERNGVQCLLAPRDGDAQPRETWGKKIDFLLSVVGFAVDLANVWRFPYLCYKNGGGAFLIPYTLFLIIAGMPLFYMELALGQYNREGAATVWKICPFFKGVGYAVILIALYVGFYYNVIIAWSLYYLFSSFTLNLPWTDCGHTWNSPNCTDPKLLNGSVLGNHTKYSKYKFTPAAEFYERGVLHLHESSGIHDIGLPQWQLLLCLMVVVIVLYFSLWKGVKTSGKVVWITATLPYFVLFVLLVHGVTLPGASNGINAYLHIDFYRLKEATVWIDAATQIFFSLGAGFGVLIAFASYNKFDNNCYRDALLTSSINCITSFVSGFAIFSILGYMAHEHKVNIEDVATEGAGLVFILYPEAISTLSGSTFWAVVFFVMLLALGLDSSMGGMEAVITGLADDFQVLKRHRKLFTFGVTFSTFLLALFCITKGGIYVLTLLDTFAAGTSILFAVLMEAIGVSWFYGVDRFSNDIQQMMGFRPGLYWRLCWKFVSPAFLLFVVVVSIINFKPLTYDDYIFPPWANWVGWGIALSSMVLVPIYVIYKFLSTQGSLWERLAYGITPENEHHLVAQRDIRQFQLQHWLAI

[6] = Inhibition of POLR2B (unknown origin) incubated for 1 hr by colloidal coomassie staining based LC-MS/MS analysis
[7] = Inhibition of SMCHD1 (unknown origin) incubated for 1 hr by colloidal coomassie staining based LC-MS/MS analysis
[8] = Binding affinity against NOLC1 (unknown origin) assessed as apparent dissociation constant incubated for 1 hr by colloidal coomassie staining based LC-MS/MS analysis
[9] = Inhibition of ARL1 (unknown origin) incubated for 1 hr by colloidal coomassie staining based LC-MS/MS analysis
[10] = Binding affinity against SETD1B (unknown origin) assessed as apparent dissociation constant incubated for 1 hr by colloidal coomassie staining based LC-MS/MS analysis
[11] = Inhibition of PRDX6 (unknown origin) incubated for 1 hr by colloidal coomassie staining based LC-MS/MS analysis
[12] = Inhibition of TKT (unknown origin) incubated for 1 hr by colloidal coomassie staining based LC-MS/MS analysis
[13] = Inhibition of RPS15A (unknown origin) incubated for 1 hr by colloidal coomassie staining based LC-MS/MS analysis
[14] = Inhibition of SFRS10 (unknown origin) incubated for 1 hr by colloidal coomassie staining based LC-MS/MS analysis
[15] = Binding affinity against TUBA4A (unknown origin) assessed as apparent dissociation constant incubated for 1 hr by colloidal coomassie staining based LC-MS/MS analysis
[16] = Inhibition of CCNL2 (unknown origin) incubated for 1 hr by colloidal coomassie staining based LC-MS/MS analysis
[17] = Inhibition of NACC1 (unknown origin) incubated for 1 hr by colloidal coomassie staining based LC-MS/MS analysis
[18] = Inhibition of ABCF1 (unknown origin) incubated for 1 hr by colloidal coomassie staining based LC-MS/MS analysis
[19] = Inhibition of INTS8 (unknown origin) incubated for 1 hr by colloidal coomassie staining based LC-MS/MS analysis
[20] = Inhibition of RPN2 (unknown origin) incubated for 1 hr by colloidal coomassie staining based LC-MS/MS analysis
[21] = Binding affinity against BRD9 (unknown origin) assessed as apparent dissociation constant incubated for 1 hr by colloidal coomassie staining based LC-MS/MS analysis
[22] = Inhibition of KPNA1 (unknown origin) incubated for 1 hr by colloidal coomassie staining based LC-MS/MS analysis
[23] = Inhibition of OGT (unknown origin) incubated for 1 hr by colloidal coomassie staining based LC-MS/MS analysis
[24] = Binding affinity against OGT (unknown origin) assessed as apparent dissociation constant incubated for 1 hr by colloidal coomassie staining based LC-MS/MS analysis
[25] = Binding affinity against CCT2 (unknown origin) assessed as apparent dissociation constant incubated for 1 hr by colloidal coomassie staining based LC-MS/MS analysis
[26] = Inhibition of PUS1 (unknown origin) incubated for 1 hr by colloidal coomassie staining based LC-MS/MS analysis
[27] = Inhibition of UBA1 (unknown origin) incubated for 1 hr by colloidal coomassie staining based LC-MS/MS analysis
[28] = Inhibition of SF3B14 (unknown origin) incubated for 1 hr by colloidal coomassie staining based LC-MS/MS analysis
[29] = Inhibition of PTBP1 (unknown origin) incubated for 1 hr by colloidal coomassie staining based LC-MS/MS analysis
[30] = Inhibition of HIST1H2BA (unknown origin) incubated for 1 hr by colloidal coomassie staining based LC-MS/MS analysis
[31] = Binding affinity against RFC1 (unknown origin) assessed as apparent dissociation constant incubated for 1 hr by colloidal coomassie staining based LC-MS/MS analysis
[32] = Binding affinity against PWWP2B (unknown origin) assessed as apparent dissociation constant incubated for 1 hr by colloidal coomassie staining based LC-MS/MS analysis
[33] = Inhibition of WDR33 (unknown origin) incubated for 1 hr by colloidal coomassie staining based LC-MS/MS analysis
[34] = Inhibition of RFC1 (unknown origin) incubated for 1 hr by colloidal coomassie staining based LC-MS/MS analysis
[35] = Inhibition of LENG8 (unknown origin) incubated for 1 hr by colloidal coomassie staining based LC-MS/MS analysis
[36] = Inhibition of CSNK2A1 (unknown origin) incubated for 1 hr by colloidal coomassie staining based LC-MS/MS analysis
[37] = Binding affinity against PSME3 (unknown origin) assessed as apparent dissociation constant incubated for 1 hr by colloidal coomassie staining based LC-MS/MS analysis
[38] = Binding affinity against GTF2I (unknown origin) assessed as apparent dissociation constant incubated for 1 hr by colloidal coomassie staining based LC-MS/MS analysis
[39] = Inhibition of CORO1A (unknown origin) incubated for 1 hr by colloidal coomassie staining based LC-MS/MS analysis
[40] = Binding affinity against DSG1 (unknown origin) assessed as apparent dissociation constant incubated for 1 hr by colloidal coomassie staining based LC-MS/MS analysis

CCNC(=O)C[C@@H]1N=C(c2ccc(Cl)cc2)c2cc(OC)ccc2-n2c(C)nnc21
pIC50 [1]: 7.22 | pIC50 [2]: 6.57 | pIC50 [3]: < 5.00 | pKd [4]: 7.18 | pIC50 [5]: < 4.00 | pIC50 [6]: 6.82 | pIC50 [7]: 5.97 | pKd [8]: 7.20 | pIC50 [9]: < 5.00 | pKd [10]: 7.35 | pIC50 [11]: < 5.00 | pIC50 [12]: 5.28 | pIC50 [13]: 5.86 | pIC50 [14]: 6.64 | pKd [15]: 6.99 | pIC50 [16]: 7.30 | pIC50 [17]: < 5.00 | pIC50 [18]: < 5.00 | pIC50 [19]: < 5.00 | pIC50 [20]: < 5.00 | pKd [21]: 7.70 | pIC50 [22]: 7.52 | pIC50 [23]: 6.32 | pKd [24]: 6.65 | pKd [25]: 5.79 | pIC50 [26]: < 5.00 | pIC50 [27]: < 5.00 | pIC50 [28]: < 5.00 | pIC50 [29]: < 5.00 | pIC50 [30]: < 5.00 | pKd [31]: 7.27 | pKd [32]: 7.60 | pIC50 [33]: 5.96 | pIC50 [34]: 7.30 | pIC50 [35]: 7.00 | pIC50 [36]: 6.92 | pKd [37]: 7.08 | pKd [38]: 5.12 | pIC50 [39]: < 5.00 | pKd [40]: 5.34
